Measured values as given in PMC3145672, “X-Ray Structure Reveals a New Class and Provides Insight into Evolution of Alkaline Phosphatases” (PLoS ONE, 2011).

Biological target: T1, SPAP (Sphingomonas sp., UniProt A1YYW7)
T1 construct: gene phoK; recombinant in E. coli, Ni-NTA purified; precursor 559 residues, predicted signal peptide 1-19; residues 31-556 visible in crystal; active monomer, 58 kD by SEC
T1 sequence (A1YYW7 20-559): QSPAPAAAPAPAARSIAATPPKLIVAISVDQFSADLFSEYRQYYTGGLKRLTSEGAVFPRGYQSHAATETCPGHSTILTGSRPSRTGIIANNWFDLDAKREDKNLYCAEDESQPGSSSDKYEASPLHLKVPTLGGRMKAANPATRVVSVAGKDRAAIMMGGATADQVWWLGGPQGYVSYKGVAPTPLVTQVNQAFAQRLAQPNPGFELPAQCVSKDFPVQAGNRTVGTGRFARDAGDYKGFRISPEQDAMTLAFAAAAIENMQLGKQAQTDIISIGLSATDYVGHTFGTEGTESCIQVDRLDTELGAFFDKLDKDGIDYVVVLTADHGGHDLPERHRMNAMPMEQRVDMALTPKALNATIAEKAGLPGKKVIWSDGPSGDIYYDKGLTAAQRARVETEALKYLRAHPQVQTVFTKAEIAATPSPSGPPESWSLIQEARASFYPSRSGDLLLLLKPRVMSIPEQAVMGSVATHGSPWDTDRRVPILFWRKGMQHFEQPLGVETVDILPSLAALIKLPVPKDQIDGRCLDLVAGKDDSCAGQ
Test: release of pNP at […] nm
Assay type: biochemical
Details: pH 8.5, room temperature; size exclusion chromatography fraction

Structure (SMILES): O=[N+]([O-])c1ccc(OP(=O)(O)O)cc1 [pNPP]
- release of pNP at 405 nm: Catalytic activity of eluted SPAP fraction was checked, at room temperature
